US20110059526A1, “REPROGRAMMING A CELL BY INDUCING A PLURIPOTENT GENE THROUGH USE OF AN HDAC MODULATOR” (NUPOTENTIAL, INC., priority 2008, published 2011)
Where a name gives a salt, the structure may show the parent alone.

What was measured:
[1] = tested on: Oct-4 gene expression, BJF cells; experiment: Small molecules, Oct-4 gene expression by qRT-PCR (Table III), BJF; format: cell-based, human
Method: (§1) Cell culture. Human dermal fibroblasts were purchased from Cell Applications (San Diego, Calif.), and were maintained at 37° C. in 95% humidity and 5% CO2 in Fibroblast growth medium (Cell Applications, San Diego, Calif.).
(§2) Quantitative RT-PCR. Expression of Oct-4 was determined by real-time RT-PCR. Briefly, total RNA was prepared from cultures using Trizol Reagent (Life Technologies, Gaithersburg, Md.) and RNeasy Mini kit (Qiagen; Valencia, Calif.) with DNase I digestion according to manufacturer's protocol. Total RNA (1 μg) from each sample was subjected to oligo(dT)-primed reverse transcription (Invitrogen; Carlsbad, Calif.). Real-time PCR reactions will be performed with PCR master mix on a 7300 real-time PCR system (Applied Biosystems; Foster City, Calif.). For each sample, 1 μl of diluted cDNA (1:10) will be added as template in PCR reactions. The expression level of Cot-4 was normalized to glyceraldehyde 3-phosphate-dehydrogenase (GAPD).
Table III provides the effects of small molecule inhibitors on Oct-4 gene expression in human somatic cells. mRNA levels were determined by real time qRT-PCR and normalized with GAPDH. The abbreviations are as follows: HDACi (histone deacetylase inhibitor DNMTi (DNA methyltransferase inhibitor); SIRTi (sirtuin, Class III HDAC inhibitor); LdeMi (lysine demethylase inhibitor); SIRT1a (sirtuin 1 activator); TSAi (trichostatin A inhibitor); HDMi/LSD1i (histone demethylase inhibitor/Lysine demethylase 1 inhibitor).

[2] = tested on: Oct-4 gene expression, adult human dermal fibroblasts (HDFa); experiment: Small molecules, Oct-4 gene expression by qRT-PCR (Table III), HDFa; format: cell-based
Method: as §1, §2
The abbreviations are as follows: HDACi (histone deacetylase inhibitor DNMTi (DNA methyltransferase inhibitor); SIRTi (sirtuin, Class III HDAC inhibitor); LdeMi (lysine demethylase inhibitor); SIRT1a (sirtuin 1 activator); TSAi (trichostatin A inhibitor); HDMi/LSD1i (histone demethylase inhibitor/Lysine demethylase 1 inhibitor).

[3] = tested on: Oct-4 gene expression, HLFa; experiment: Small molecules, Oct-4 gene expression by qRT-PCR (Table III), HLFa; format: cell-based, human; conditions: dose 500 uM, Rx Time 5
[4] = tested on: Oct-4 protein, fetal human dermal fibroblasts (HDFf); experiment: Immunohistochemistry of Oct-4 protein in shRNA-infected cells; format: cell-based; conditions: versus uninfected control
Method: Cell culture. Fetal human dermal fibroblasts were purchased from Cell Applications (San Diego, Calif.), and were maintained at 37° C. in 95% humidity and 5% CO2 in Fibroblast growth medium (Cell Applications, San Diego, Calif.).
Lentiviral Infection. Fetal human dermal fibroblasts were infected with one of the following compositions: (1) shRNA lentivirus directed to DNMT1; (2) shRNA lentivirus directed toward HDAC7; (3) shRNA lentivirus directed toward DNMT1 and HDAC7; and (4) shRNA lentivirus directed toward HDAC7a and HDAC11. The shRNA construct was obtained from Dharmacon. The shRNA construct directed toward HDAC7a had the following sequence:
(§3) The human dermal fibroblasts were infected with the shRNA following the manufacturer's instructions. HDF were cultured with an without puromycin selection and hES culture conditions (mTeSR Medium, Stem Cell Technology, Vancouver, BC, Canada) on matrigel (BD Biosciences, San Jose Calif.).
Immunohistochemistry. For immunohistochemistry, target shRNA-infected and control cells were grown on chambered slides (LabTek, Napersville, Ill.). Cells were then be fixed with 4% paraformaldehyde, and incubated with a specific antibody directed against pluripotency marker Oct3/4 (Abeam, Cambridge, Mass.) following the manufacturer's protocol. Staining of Oct3/4 was visualized as a red color. […]

[5] = tested on: Sox-2 protein, fetal human dermal fibroblasts (HDFf); experiment: Immunohistochemistry of Sox-2 protein in shRNA-infected cells; format: cell-based; conditions: versus uninfected control
[6] = tested on: HDAC genes and SIRT genes mRNA, human dermal fibroblasts; experiment: HDAC7 shRNA lentiviral infection, RT-PCR of HDAC and SIRT genes (FIG. 7); format: cell-based
Text: (§4) Human dermal fibroblasts (HDFa, HDFn, and HDFf) were infected with shRNA lentivirus to interfere with HDAC7. In a separate set of experiments, human dermal fibroblasts (HDFa, HDFn, and HDFf) were infected with shRNA lentivirus to interfere with HDAC11. RNA was isolated from HDFs (including puromycin selection) and applied to RT-PCR to analyze expression of target genes, e.g., Oct-4, Nanog, Sox2, various HDACs and various SIRT genes. The shRNA construct included puromycin (antibiotic) resistance as a way to select cells that have been successfully transfected with the shRNA. After transfection, puromycin was added to the culture and cells that were not resistant (therefore not transfected) died, thereby leaving only transfected cells remaining in the culture.
as §1
(§5) Lentiviral Infection. Human dermal fibroblasts were infected with a shRNA construct. The shRNA construct was obtained from Dharmacon. The shRNA construct directed toward directed toward HDAC7a had the following sequence:
The human dermal fibroblasts were infected with the shRNA following the manufacturer's instructions. […]
Quantitative RT-PCR. Expression of Oct-3/4 and Nanog was determined by real-time RT-PCR. […]

[7] = tested on: Oct-4, Nanog, Sox-2 mRNA, human dermal fibroblasts (HDFa, HDFn, HDFf); experiment: HDAC7 or HDAC11 shRNA lentiviral infection, RT-PCR of Oct-4, Nanog, Sox-2 mRNA; format: cell-based
Text: as §4, §1, §5
as §3, with “Calif.). In these sets of experiments, cells were infected with a shRNA construct directed toward either HDAC7, or HDAC11.” for “Calif.).”
as §2, with “Oct-3/4 and Nanog” for “Oct-4”, “DNase” for “DNase I”, “Oct-3/4 and Nanog” for “Cot-4”

[8] = tested on: HDAC7a and HDAC11 expression, human dermal fibroblasts (HDFa, HDFn, HDFf); experiment: HDAC7a shRNA effect on expression of HDAC7a and HDAC11, RT-PCR; format: cell-based
Method: as §1
Lentiviral Infection. Human dermal fibroblasts were infected with a shRNA construct. The shRNA construct was obtained from Dharmacon. The shRNA construct directed toward HDAC7a had the following sequence:
as §3
as §2, with “HDAC7a and HDAC11” for “Oct-4”, “The expression level of Cot-4 was normalized to glyceraldehyde 3-phosphate-dehydrogenase (GAPD).” left out

Compound: NC1CC1c1ccccc1 (centres unmarked) [2-PCPA]
- Oct4 FC ([1]; dose 1 mM, Rx Time 8): <2

Compound: O=C(O)CCCCC1CCSS1 (stereo not drawn) [ALA, Alpha-lipoic acid]
- Oct4 FC ([2]; dose 50 uM, Rx Time 4): 3.5

Compound: O=C(O)CCCC[C@@H]1SC[C@@H]2NC(=O)N[C@@H]21 [Biotin]
- Oct4 FC ([2]; dose 500 uM, Rx Time 4): <2

Compound: Nc1ccccc1NC(=O)CCCCCCC(=O)Nc1ccccc1 [CAY 10433]
- Oct4 FC ([2]; dose 50 uM, Rx Time 4): <2

Compound: O=C(O[C@@H]1Cc2c(O)cc(O)cc2O[C@@H]1c1cc(O)c(O)c(O)c1)c1cc(O)c(O)c(O)c1 [EGCG]
- Oct4 FC ([1]; dose 1 uM, Rx Time 4): <2

Compound: NC(=O)C1CCCc2c1[nH]c1ccc(Cl)cc21 (centres unmarked) [EX-527]
- Oct4 FC ([2]; dose 50 uM, Rx Time 4): 2

Compound: NNc1nncc2ccccc12 [Hydralazine HCL]
- Oct4 FC ([2]; dose 500 uM, Rx Time 2): <2

Compound: O=C(c1ccc(Cl)cc1Cl)n1nnc2ccccc21 [ITSA]
- Oct4 FC ([2]; dose .05 mM, Rx Time 4): <2

Compound: NC(=O)c1cccnc1 [Nicotinamide]
- Oct4 FC ([2]; dose .028 mM, Rx Time 4): 2.3

Compound: CCN(CC)CCOC(=O)c1ccc(N)cc1 [Procaine HCL]
- Oct4 FC ([2]; dose 500 uM, Rx Time 8): <2

Compound: O=C(NCCSSCCNC(=O)/C(Cc1ccc(O)c(Br)c1)=N/O)/C(Cc1ccc(O)c(Br)c1)=N/O [Psammaplin-A]
- Oct4 FC ([1]; dose 1.5 mM, Rx Time 7): 2.2

Compound: O=C(O)C(Cc1c[nH]c2ccccc12)N1C(=O)c2ccccc2C1=O (centres unmarked) [RG108]
- Oct4 FC [3]: <2

Compound: Cn1cc(C2=C(c3cn(CCCSC(=N)N)c4ccccc34)C(=O)NC2=O)c2ccccc21 [RO-31-8220]
- Oct4 FC ([1]; dose 2.5 mM, Rx Time 4): <2

Compound: Oc1ccc(C=Cc2cc(O)cc(O)c2)cc1 [Resveratrol]
- Oct4 FC ([1]; dose .5 mM, Rx Time 4): <2

Compound: COCCCn1c(N)c(C(=O)NC2CCCC2)c2nc3ccccc3nc21 [SIRT1 Activator 3]
- Oct4 FC ([2]; dose 500 uM, Rx Time 4): 2

Compound: CC(NC(=O)c1ccccc1/N=C/c1c(O)ccc2ccccc12)c1ccccc1 (centres unmarked) [Sirtinol]
- Oct4 FC ([1]; dose .05 mM, Rx Time 7): <2

Compound: O=C1CCc2c(ccc3ccccc23)O1 [Splitomycin]
- Oct4 FC ([2]; dose .5 mM, Rx Time 4): 2

Compound: N[C@@H]1C[C@H]1c1ccccc1 [Tranylcypromine]
- Oct4 FC ([2]; dose 2.5 mM, Rx Time 4): 2.7

Compound: O=c1ncccn1[C@@H]1O[C@H](CO)[C@@H](O)[C@H]1O [Zebularine]
- Oct4 FC ([1]; dose .05 mM, Rx Time 6): <2

Compound: DNMT1 shRNA: shRNA construct directed toward DNMT1, SEQ ID NO. 4: GTCTACCAGATCTTCGATA (listed as Homo Sapiens)
- Oct-4 protein expression [4]: clearly increased
- Sox-2 protein expression [5]: only a modest amount

Compound: Depudecin
- Oct4 FC ([2]; dose 50 uM, Rx Time 4): <2

Compound: HDAC7 shRNA: shRNA lentiviral construct from Dharmacon directed toward HDAC7a, SEQ ID NO. 1: GCTTTCAGGATAGTCGTGA (shRNA lentiviral construct)
- level of HDAC7 mRNA reduced ([6]; around three days after lentiviral infection): about 50 % of basal level
- expression of HDAC 9, HDAC5 and HDAC11 mRNA ([6]; three days after HDAC7 shRNA infection): inducted
- Oct-4 protein expression [4]: minimal detection
- Sox-2 protein expression [5]: minimal protein expression
- level of mRNA for the gene Oct-4 ([7]; HDFa and HDFn, presence and absence of puromycin, compared to Nanog): more modest increase
- expression of Nanog increased over time ([7]; HDFa and HDFn, with and without puromycin selection): at least six-fold
- level of mRNA for the gene Nanog ([7]; HDFa, HDFn and HDFf, presence and absence of puromycin): increased
- level of mRNA for the gene Nanog ([7]; HDFf, compared with HDFa and HDFn): not as robustly
- level of mRNA for the Sox-2 gene ([7]; fetal human dermal fibroblasts (HDFf)): No induction
- expression of HDAC7a [8]: decreased
- expression of HDAC11 ([8]; presence and absence of puromycin): increased

Compound: Na Phenylbutyrate
- Oct4 FC ([2]; dose 2.5 mM, Rx Time 4): 2.5

Compound: Valproxam
- Oct4 FC ([2]; dose .5 mM, Rx Time 4): <2
